What all share (details): Hit No
Assay [1] concerns the target Methyl-CpG-binding domain protein 4 (Homo sapiens) (UniProt O95243).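 Also: MBD4 activity read as fluorescence at 594 nm from cleavage and release of a quenched duplex DNA oligonucleotide, with APE1 coupled to incise the strand and raise turnover.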
Description: Inhibition of MBD4 by quantifying inhibition of MBD4-mediated cleavage and dissociation of quenched duplex DNA oligonucleotides, measured as fluorescence at 594 nm. To generate a functional strand incision and increase turn-over this assay is coupled to APE1.
The target in assay [2] is T1, Adenine DNA glycosylase (Homo sapiens) (UniProt Q9UIF7).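 Also: human MUTYH activity read as 594 nm fluorescence from cleavage and release of a quenched DNA duplex, coupled with APE1 for strand incision, lower signal meaning inhibition.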
T1 sequence (whole entry): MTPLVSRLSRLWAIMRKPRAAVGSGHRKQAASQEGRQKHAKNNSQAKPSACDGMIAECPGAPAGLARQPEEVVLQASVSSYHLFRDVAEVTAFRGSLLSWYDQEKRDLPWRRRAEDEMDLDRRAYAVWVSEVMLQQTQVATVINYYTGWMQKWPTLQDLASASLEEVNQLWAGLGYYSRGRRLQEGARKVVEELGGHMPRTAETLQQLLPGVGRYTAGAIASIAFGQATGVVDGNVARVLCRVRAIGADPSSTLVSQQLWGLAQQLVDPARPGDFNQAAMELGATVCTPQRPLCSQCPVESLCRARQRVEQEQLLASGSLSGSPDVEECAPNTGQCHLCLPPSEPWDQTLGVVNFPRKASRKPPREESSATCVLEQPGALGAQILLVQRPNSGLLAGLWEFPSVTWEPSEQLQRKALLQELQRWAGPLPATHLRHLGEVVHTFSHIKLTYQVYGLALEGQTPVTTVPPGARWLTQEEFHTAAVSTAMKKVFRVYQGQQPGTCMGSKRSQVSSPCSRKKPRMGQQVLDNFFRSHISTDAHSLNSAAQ
Description: Inhibition of MUTYH by quantifying inhibition of MUTYH-mediated cleavage and dissociation of quenched duplex DNA oligonucleotides, measured as fluorescence at 594 nm. To generate a functional strand incision and increase turn-over this assay is coupled to APE1.

In assay [3] the target is Endonuclease 8-like 1 (Homo sapiens) (UniProt Q96FI4).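 Also: fluorescence at 594 nm from quenched duplex DNA oligonucleotides released by NEIL1 cleavage and strand separation, reported as reduction of this enzyme activity.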
Description: Inhibition of NEIL1 by quantifying inhibition of NEIL1-mediated cleavage and dissociation of quenched duplex DNA oligonucleotides, measured as fluorescence at 594 nm.
Assay [4] has as its target T2, Endonuclease 8-like 2 (Homo sapiens) (UniProt Q969S2).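 Also: fluorescence at 594 nm reports NEIL2 cutting and release of a quenched double-stranded DNA oligo substrate, reduced signal read as inhibition.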
T2 sequence (whole entry): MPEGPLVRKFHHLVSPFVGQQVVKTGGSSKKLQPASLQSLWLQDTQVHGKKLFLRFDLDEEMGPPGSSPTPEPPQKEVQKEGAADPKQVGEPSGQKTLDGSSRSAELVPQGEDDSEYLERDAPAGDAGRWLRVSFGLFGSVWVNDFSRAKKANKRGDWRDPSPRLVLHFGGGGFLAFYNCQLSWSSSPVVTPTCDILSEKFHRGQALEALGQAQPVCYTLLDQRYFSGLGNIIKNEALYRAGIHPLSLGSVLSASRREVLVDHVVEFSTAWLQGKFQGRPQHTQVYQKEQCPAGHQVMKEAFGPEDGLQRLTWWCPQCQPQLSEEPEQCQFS
Description: Inhibition of NEIL2 by quantifying inhibition of NEIL2-mediated cleavage and dissociation of quenched duplex DNA oligonucleotides, measured as fluorescence at 594 nm.

In assay [5] the target is T3, Endonuclease III-like protein 1 (Homo sapiens) (UniProt P78549).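 Also: enzyme assay tracking NTHL1 cutting and release of a quenched double-stranded DNA oligo substrate, read as fluorescence at 594 nm.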
T3 sequence (whole entry): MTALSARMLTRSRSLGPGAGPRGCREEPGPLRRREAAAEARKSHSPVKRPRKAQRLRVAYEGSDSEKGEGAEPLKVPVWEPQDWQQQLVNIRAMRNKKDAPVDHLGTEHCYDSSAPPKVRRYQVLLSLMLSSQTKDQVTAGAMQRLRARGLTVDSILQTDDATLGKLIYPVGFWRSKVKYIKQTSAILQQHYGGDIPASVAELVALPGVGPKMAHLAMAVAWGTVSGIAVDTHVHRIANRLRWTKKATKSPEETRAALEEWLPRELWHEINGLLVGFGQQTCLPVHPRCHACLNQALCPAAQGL
Description: Inhibition of NTHL1 by quantifying inhibition of NTHL1-mediated cleavage and dissociation of quenched duplex DNA oligonucleotides, measured as fluorescence at 594 nm.

Assay [6] addresses N-glycosylase/DNA lyase (Homo sapiens) (UniProt O15527).
Description: Inhibition of OGG1 by quantifying inhibition of OGG1-mediated cleavage and dissociation of quenched duplex DNA oligonucleotides, measured as fluorescence at 594 nm. To generate a functional strand incision and increase turn-over this assay is coupled to APE1.
Assay [7] concerns the target T4, Single-strand selective monofunctional uracil DNA glycosylase (Homo sapiens) (UniProt Q53HV7).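 Also: enzymatic SMUG1 assay coupled with APE1, reading fluorescence at 594 nm released when a quenched double-stranded DNA oligonucleotide substrate is cleaved and separated.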
T4 sequence (whole entry): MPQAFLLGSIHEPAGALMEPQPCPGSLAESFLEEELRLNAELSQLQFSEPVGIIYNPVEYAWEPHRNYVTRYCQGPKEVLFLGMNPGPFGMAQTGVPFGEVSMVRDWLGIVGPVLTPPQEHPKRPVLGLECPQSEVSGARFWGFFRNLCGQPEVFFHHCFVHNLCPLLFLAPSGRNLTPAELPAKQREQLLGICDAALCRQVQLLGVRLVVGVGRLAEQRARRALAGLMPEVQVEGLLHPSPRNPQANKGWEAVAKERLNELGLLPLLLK
Description: Inhibition of SMUG1 by quantifying inhibition of SMUG1-mediated cleavage and dissociation of quenched duplex DNA oligonucleotides, measured as fluorescence at 594 nm. To generate a functional strand incision and increase turn-over this assay is coupled to APE1.

Assay [8] has as its target G/T mismatch-specific thymine DNA glycosylase (Homo sapiens) (UniProt Q13569).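 Also: human TDG cleavage of quenched duplex DNA oligonucleotides coupled to APE1, strand release read as fluorescence at 594 nm, inhibition of TDG activity.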
Description: Inhibition of TDG by quantifying inhibition of TDG-mediated cleavage and dissociation of quenched duplex DNA oligonucleotides, measured as fluorescence at 594 nm. To generate a functional strand incision and increase turn-over this assay is coupled to APE1.
The target of assay [9] is Uracil-DNA glycosylase (Homo sapiens) (UniProt P13051).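 Also: UNG excision on a quenched double-stranded DNA oligo probe, with APE1 added for strand incision and turnover, read as fluorescence at 594 nm as strands separate.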
Chain of Uracil-DNA glycosylase (Homo sapiens) (P13051 whole entry): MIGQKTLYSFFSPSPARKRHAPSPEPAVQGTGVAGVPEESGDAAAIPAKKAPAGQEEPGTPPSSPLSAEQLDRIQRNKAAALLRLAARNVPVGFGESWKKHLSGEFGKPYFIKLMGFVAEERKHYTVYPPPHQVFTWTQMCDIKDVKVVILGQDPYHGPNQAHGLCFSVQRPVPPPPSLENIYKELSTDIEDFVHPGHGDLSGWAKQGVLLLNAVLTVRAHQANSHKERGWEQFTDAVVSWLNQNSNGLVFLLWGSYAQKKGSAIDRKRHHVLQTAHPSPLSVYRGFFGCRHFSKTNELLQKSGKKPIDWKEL
Description: Inhibition of UNG by quantifying inhibition of UNG-mediated cleavage and dissociation of quenched duplex DNA oligonucleotides, measured as fluorescence at 594 nm. To generate a functional strand incision and increase turn-over this assay is coupled to APE1.

Chain of Methyl-CpG-binding domain protein 4 (Homo sapiens) (O95243 whole entry, the tested form may be a part): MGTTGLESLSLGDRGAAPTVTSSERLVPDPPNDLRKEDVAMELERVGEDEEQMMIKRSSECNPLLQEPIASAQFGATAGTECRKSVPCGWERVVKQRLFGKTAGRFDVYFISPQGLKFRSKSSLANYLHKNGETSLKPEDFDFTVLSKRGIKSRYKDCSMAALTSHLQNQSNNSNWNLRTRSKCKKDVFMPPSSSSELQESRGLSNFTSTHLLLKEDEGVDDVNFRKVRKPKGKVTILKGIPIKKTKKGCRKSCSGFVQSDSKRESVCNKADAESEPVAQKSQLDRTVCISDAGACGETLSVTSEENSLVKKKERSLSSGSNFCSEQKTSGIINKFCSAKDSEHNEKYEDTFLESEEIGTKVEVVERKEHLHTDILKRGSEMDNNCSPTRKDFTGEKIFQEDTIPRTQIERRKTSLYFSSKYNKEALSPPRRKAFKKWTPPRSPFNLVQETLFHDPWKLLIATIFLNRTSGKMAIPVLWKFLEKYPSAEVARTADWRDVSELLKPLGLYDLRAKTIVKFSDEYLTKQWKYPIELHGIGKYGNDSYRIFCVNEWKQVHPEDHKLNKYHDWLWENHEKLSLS
Chain of G/T mismatch-specific thymine DNA glycosylase (Homo sapiens) (Q13569 whole entry): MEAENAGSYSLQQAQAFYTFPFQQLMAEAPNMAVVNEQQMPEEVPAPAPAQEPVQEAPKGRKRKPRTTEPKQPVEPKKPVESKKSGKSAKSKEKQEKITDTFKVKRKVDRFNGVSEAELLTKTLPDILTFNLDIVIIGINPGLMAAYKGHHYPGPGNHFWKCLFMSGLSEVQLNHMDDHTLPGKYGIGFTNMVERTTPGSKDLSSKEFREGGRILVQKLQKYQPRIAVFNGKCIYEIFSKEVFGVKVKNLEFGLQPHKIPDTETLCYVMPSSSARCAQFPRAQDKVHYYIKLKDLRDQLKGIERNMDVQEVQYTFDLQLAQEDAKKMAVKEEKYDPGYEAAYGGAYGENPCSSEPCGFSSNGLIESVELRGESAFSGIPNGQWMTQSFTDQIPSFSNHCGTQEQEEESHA
Chain of N-glycosylase/DNA lyase (Homo sapiens) (O15527 whole entry): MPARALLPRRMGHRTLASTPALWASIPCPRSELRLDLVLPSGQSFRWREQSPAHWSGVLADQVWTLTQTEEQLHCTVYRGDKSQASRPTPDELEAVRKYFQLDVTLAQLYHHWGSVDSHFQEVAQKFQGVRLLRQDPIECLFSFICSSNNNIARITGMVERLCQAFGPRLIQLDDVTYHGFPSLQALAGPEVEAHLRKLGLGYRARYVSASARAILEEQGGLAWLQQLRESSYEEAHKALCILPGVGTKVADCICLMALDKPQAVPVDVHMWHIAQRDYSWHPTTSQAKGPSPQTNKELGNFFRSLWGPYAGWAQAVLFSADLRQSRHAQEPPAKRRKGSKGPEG
Chain of Endonuclease 8-like 1 (Homo sapiens) (Q96FI4 whole entry): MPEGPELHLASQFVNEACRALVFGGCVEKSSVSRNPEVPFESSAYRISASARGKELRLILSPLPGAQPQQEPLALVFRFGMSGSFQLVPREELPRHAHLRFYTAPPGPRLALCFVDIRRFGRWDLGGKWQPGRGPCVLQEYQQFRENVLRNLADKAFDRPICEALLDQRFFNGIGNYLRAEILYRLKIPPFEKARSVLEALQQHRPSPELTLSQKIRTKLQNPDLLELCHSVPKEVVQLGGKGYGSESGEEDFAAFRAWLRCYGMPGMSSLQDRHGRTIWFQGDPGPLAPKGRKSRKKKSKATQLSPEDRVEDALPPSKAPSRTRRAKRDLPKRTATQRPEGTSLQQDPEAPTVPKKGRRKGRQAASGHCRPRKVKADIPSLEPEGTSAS

For orientation: inhibition means the drop in the measured response relative to a control, in per cent. For the compound `CN1CCN(C(=O)C(C)(C)c2ccc(C(=O)Nc3cn4cc(-c5ccncc5)ccc4n3)cc2)CC1`, the inhibition in assay [1] (Compound Concentration 1.0 uM) is -4.56%; in assay [1] (Compound Concentration 10.0 uM), 60.8%; in assay [2] (Compound Concentration 1.0 uM) it was 33.1%; in assay [2] (Compound Concentration 10.0 uM), 32.7%; in assay [3] (Compound Concentration 10.0 uM) it was 1.07%; in assay [4] (Compound Concentration 10.0 uM), -4.06%. Moreover, the inhibition is 4.27% in assay [5] (Compound Concentration 1.0 uM); 9.89% in [5] (Compound Concentration 10.0 uM); -1.57% in assay [6] (Compound Concentration 1.0 uM); 0.918% in assay [6] (Compound Concentration 10.0 uM); 14.8% in [7] (Compound Concentration 1.0 uM); 18.7% in [7] (Compound Concentration 10.0 uM). In addition, the inhibition in assay [8] (Compound Concentration 1.0 uM) is 36.3%; in assay [8] (Compound Concentration 10.0 uM) it was 60.5%; in [9] (Compound Concentration 1.0 uM), 0.265%; in [9] (Compound Concentration 10.0 uM), 6.5%.
Regarding `CC1(C)CCC(C)(C)c2cc(C(=O)Nc3ccc(C(=O)O)cc3)ccc21`, the inhibition in assay [1] (Compound Concentration 10.0 uM) was 58.8%; in [2] (Compound Concentration 10.0 uM), 14.4%; in assay [3] (Compound Concentration 10.0 uM), -3.17%; in assay [4] (Compound Concentration 10.0 uM), -6.36%; in assay [5] (Compound Concentration 10.0 uM), 2.66%; in assay [6] (Compound Concentration 10.0 uM) it was 27.8%. Besides, the inhibition turned out to be 16.9% in assay [7] (Compound Concentration 10.0 uM), 100% in assay [8] (Compound Concentration 10.0 uM) and 5.57% in [9] (Compound Concentration 10.0 uM).
Consider `CN(C)CC#Cc1ccc2[nH]c3c(c2c1)-c1nc(N)ncc1CCC3`, for which the inhibition in assay [1] (Compound Concentration 1.0 uM) stood at 3.44%; in assay [2] (Compound Concentration 1.0 uM) it was 1.71%; in [3] (Compound Concentration 1.0 uM), 2.65%; in assay [4] (Compound Concentration 1.0 uM), 4.81%; in assay [5] (Compound Concentration 1.0 uM) it was 10.6%; in assay [6] (Compound Concentration 1.0 uM), 3.18%. Also, the inhibition in assay [7] (Compound Concentration 1.0 uM) turned out to be 11.2%; in assay [8] (Compound Concentration 1.0 uM), 46.8%; in [9] (Compound Concentration 1.0 uM) it was 3.22%.
Turning to `O=C(O)c1cc(F)c2nc(N3[C@@H]4CC[C@H]3C[C@@H](OCc3c(-c5ccccc5OC(F)(F)F)noc3C3CC3)C4)sc2c1`, the inhibition in assay [1] (Compound Concentration 10.0 uM) is 61.7%; in [2] (Compound Concentration 10.0 uM), 11.9%; in [3] (Compound Concentration 10.0 uM), -9.38%; in [4] (Compound Concentration 10.0 uM), -1.76%; in [5] (Compound Concentration 10.0 uM), 10.6%; in assay [6] (Compound Concentration 10.0 uM), 67.8%. Moreover, the inhibition in [7] (Compound Concentration 10.0 uM) came out at 17.7%; in [8] (Compound Concentration 10.0 uM), 99.3%; in assay [9] (Compound Concentration 10.0 uM) it was 4.52%.
As to `NC1(c2ccc(-c3nc4c(O)ccnn4c3-c3ccccc3)cc2)CCC1`, the inhibition was 76.1% in assay [1] (Compound Concentration 1.0 uM); 29% in assay [1] (Compound Concentration 10.0 uM); 23.6% in assay [2] (Compound Concentration 1.0 uM); 14.3% in [2] (Compound Concentration 10.0 uM); -7.26% in assay [3] (Compound Concentration 1.0 uM); -6.47% in [3] (Compound Concentration 10.0 uM). Moreover, the inhibition in assay [4] (Compound Concentration 1.0 uM) was -0.489%; in [4] (Compound Concentration 10.0 uM), -3.27%; in assay [5] (Compound Concentration 1.0 uM), -7.86%; in assay [6] (Compound Concentration 1.0 uM), 10.4%; in [7] (Compound Concentration 1.0 uM), 19.9%; in assay [7] (Compound Concentration 10.0 uM), 19.3%. Besides, the inhibition in [8] (Compound Concentration 1.0 uM) is 59.1%; in assay [8] (Compound Concentration 10.0 uM), 52.1%; in assay [9] (Compound Concentration 1.0 uM) it was 7.66%; in assay [9] (Compound Concentration 10.0 uM), -0.0214%.
For `O=C1c2ccc(Nc3ccc(F)cc3F)cc2CCc2ccc(OC[C@H](O)CO)cc21`, the inhibition in assay [1] (Compound Concentration 10.0 uM) is 32.4%; in assay [2] (Compound Concentration 10.0 uM), -4.85%; in assay [3] (Compound Concentration 10.0 uM), -0.672%; in assay [4] (Compound Concentration 10.0 uM), 4.92%; in assay [5] (Compound Concentration 10.0 uM), 0.775%; in assay [6] (Compound Concentration 10.0 uM), -9.94%. Besides, the inhibition in assay [7] (Compound Concentration 10.0 uM) came out at 11.5%; in [8] (Compound Concentration 10.0 uM), 39.4%; in assay [9] (Compound Concentration 10.0 uM) it was 8.79%.
Regarding `Cc1cc(-n2nc(Cc3cc(F)cc(C(F)(F)F)c3)nc2C)ccc1C(N)=O`, the inhibition in [1] (Compound Concentration 10.0 uM) was 59.6%; in assay [2] (Compound Concentration 10.0 uM), 0.715%; in assay [3] (Compound Concentration 10.0 uM), -6.95%; in assay [4] (Compound Concentration 10.0 uM), -0.234%; in [5] (Compound Concentration 10.0 uM), 7.26%; in assay [6] (Compound Concentration 10.0 uM), -5.77%. Moreover, the inhibition in assay [7] (Compound Concentration 10.0 uM) came to 18.8%; in assay [8] (Compound Concentration 10.0 uM), 97.3%; in [9] (Compound Concentration 10.0 uM), 2.38%.
As to `N#Cc1cc(F)cc(-c2nc(-c3ccc(F)cn3)no2)c1`, the inhibition in assay [1] (Compound Concentration 10.0 uM) was 0.258%; in [2] (Compound Concentration 10.0 uM), -0.521%; in assay [3] (Compound Concentration 10.0 uM), -4.29%; in assay [4] (Compound Concentration 10.0 uM), -9.52%; in [5] (Compound Concentration 10.0 uM), -9.34%; in assay [6] (Compound Concentration 10.0 uM), -9.37%. Besides, the figures for the inhibition in assay [7] (Compound Concentration 10.0 uM), in assay [8] (Compound Concentration 10.0 uM) and in assay [9] (Compound Concentration 10.0 uM) were -0.692%, 2.89% and -3.92%, respectively.

The record behind these values is ChEMBL document CHEMBL5665443, “Enzyme Inhibitor Single Concentration assay results for EUbOPEN Chemogenomics Library” (2024).
